In brackets after ≈: the same amount, converted by molar mass.
system: LH1; test: ETEST antibiotic sensitivity of LH1; format: cell-based; conditions: 24 h, read-out: Susceptible to

Compound	MIC
CC[C@H]1OC(=O)[C@H](C)[C@@H](O[C@H]2C[C@@](C)(OC)[C@@H](O)[C@H](C)O2)[C@H](C)[C@@H](O[C@@H]2O[C@H](C)C[C@H](N(C)C)[C@H]2O)[C@](C)(OC)C[C@@H](C)C(=O)[C@H](C)[C@@H](O)[C@]1(C)O [Clarithromycin]	0.16 µg/mL (≈ 0.214 µM)

same assay, conditions: ETEST, LH1, 24-hours anaerobic incubation

Compound	Susceptible to	Resistant to
Amoxicillin/Clavulanic Acid	0.125 µg/mL	
NC[C@H]1O[C@H](O[C@H]2[C@H](O)[C@@H](O[C@H]3O[C@H](CO)[C@@H](O)[C@H](N)[C@H]3O)[C@H](N)C[C@@H]2N)[C@H](N)C[C@@H]1O [Tobramycin]		>512 µg/mL
C[C@H]1COc2c(N3CCN(C)CC3)c(F)cc3c(=O)c(C(=O)O)cn1c23 [Levofloxacin]		12 µg/mL
Trimethoprim/Sulfamethoxazole		32 µg/mL
CCN1CCN(C(=O)N[C@@H](C(=O)N[C@@H]2C(=O)N3[C@@H]2SC(C)(C)[C@@H]3C(=O)O)c2ccccc2)C(=O)C1=O [Piperacillan]	0.19 µg/mL	
NCC[C@H](O)C(=O)N[C@@H]1C[C@H](N)[C@@H](O[C@H]2O[C@H](CN)[C@@H](O)[C@H](O)[C@H]2O)[C@H](O)[C@H]1O[C@H]1O[C@H](CO)[C@@H](O)[C@H](N)[C@H]1O [Amikacin]		48 µg/mL
O=C(O)c1cn(C2CC2)c2cc(N3CCNCC3)c(F)cc2c1=O [Ciprofloxacin), Ciprofloxacin]		32 µg/mL

same assay, conditions: ETEST, LH1, 24-hours anaerobic incubation; read-out: Susceptible to

Compound	MIC
CC(=O)NC[C@H]1CN(c2ccc(N3CCOCC3)c(F)c2)C(=O)O1 [Linezolid]	0.5 µg/mL (≈ 1.48 µM)
CO[C@H]1/C=C/O[C@@]2(C)Oc3c(C)c(O)c4c(O)c(c(/C=N/N5CCN(C)CC5)c(O)c4c3C2=O)NC(=O)/C(C)=C\C=C\[C@H](C)[C@H](O)[C@@H](C)[C@@H](O)[C@@H](C)[C@H](OC(C)=O)[C@@H]1C [Rifampicin]	0.125 µg/mL (≈ 0.152 µM)
C[C@@H](O)[C@H]1C(=O)N2C(C(=O)O)=C(SCCN=CN)C[C@H]12 [Imipenem]	0.094 µg/mL (≈ 0.314 µM)
C[C@H]1[C@H](NC(=O)/C(=N\OC(C)(C)C(=O)O)c2csc(N)n2)C(=O)N1S(=O)(=O)O [Aztreonam]	2 µg/mL (≈ 4.59 µM)
CN[C@H](CC(C)C)C(=O)N[C@H]1C(=O)N[C@@H](CC(N)=O)C(=O)N[C@H]2C(=O)N[C@H]3C(=O)N[C@H](C(=O)N[C@H](C(=O)O)c4cc(O)cc(O)c4-c4cc3ccc4O)[C@H](O)c3ccc(c(Cl)c3)Oc3cc2cc(c3O[C@@H]2O[C@H](CO)[C@@H](O)[C@H](O)[C@H]2O[C@H]2C[C@](C)(N)[C@H](O)[C@H](C)O2)Oc2ccc(cc2Cl)[C@H]1O [Vancomycin]	1.5 µg/mL (≈ 1.04 µM)
CC[C@H]1OC(=O)[C@H](C)[C@@H](O[C@H]2C[C@@](C)(OC)[C@@H](O)[C@H](C)O2)[C@H](C)[C@@H](O[C@@H]2O[C@H](C)C[C@H](N(C)C)[C@H]2O)[C@](C)(O)C[C@@H](C)C(=O)[C@H](C)[C@@H](O)[C@]1(C)O [Erythromycin]	0.023 µg/mL (≈ 0.0313 µM)
CN(C)[C@@H]1C(O)=C(C(N)=O)C(=O)[C@@]2(O)C(O)=C3C(=O)c4c(O)cccc4[C@@](C)(O)[C@H]3C[C@@H]12 [Tetracycline]	0.5 µg/mL (≈ 1.13 µM)
